Measurements as given in patent publication EP0111607A1, “Tropyl and pseudotropyl alkyl-benzoates and their use in migraine treatment” (MERRELL TORAUDE ET COMPAGNIE, priority 1982, dated 1984).

Molecular target: T1, 5-HT M-receptor (Oryctolagus cuniculus, UniProt G1TUQ4)
T1 sequence (G1TUQ4 24-513): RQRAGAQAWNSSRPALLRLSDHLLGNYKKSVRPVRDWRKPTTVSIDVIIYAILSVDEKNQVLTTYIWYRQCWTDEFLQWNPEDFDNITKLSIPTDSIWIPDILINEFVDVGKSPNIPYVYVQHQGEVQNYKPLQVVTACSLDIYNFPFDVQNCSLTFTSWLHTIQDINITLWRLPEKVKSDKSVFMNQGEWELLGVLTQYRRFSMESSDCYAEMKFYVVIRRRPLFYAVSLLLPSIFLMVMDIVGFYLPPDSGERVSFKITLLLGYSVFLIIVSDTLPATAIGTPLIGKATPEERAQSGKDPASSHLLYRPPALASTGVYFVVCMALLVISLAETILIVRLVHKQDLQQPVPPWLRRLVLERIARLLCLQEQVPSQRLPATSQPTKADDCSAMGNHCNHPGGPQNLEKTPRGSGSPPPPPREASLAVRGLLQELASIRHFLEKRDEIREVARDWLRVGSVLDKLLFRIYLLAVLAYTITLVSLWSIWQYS
Experiment: not given
Conditions: 5-HT M-receptor antagonism; reported by Fozard et al., Eur. J. Pharmacol. 59(1979) and 49(1978), same procedure; cited from earlier work

Row | SMILES | pA2
1 | COC(=O)[C@H]1[C@@H](OC(=O)c2ccccc2)C[C@@H]2CC[C@H]1N2 [nor(-)cocaine] | 7.7
2 | CCN(CC)CCNC(=O)c1cc(Cl)c(N)cc1OC [metoclopramide] | 7.2
3 | CN1C2CCC1CC(OC(=O)c1ccccc1)C2 (stereo not shown) [pseudotropyl benzoate] | 7.0
4 | CN1[C@@H]2CC[C@H]1C[C@@H](OC(=O)c1ccccc1)C2 [tropyl benzoate] | 7.2

Same assay, conditions: 5-HT M-receptor antagonism; tests referred to with European Patent Application No. 82401060.7; cited from earlier work

Row | SMILES | pA2
5 | COc1cc(C(=O)OC2CC3CCC(C2)N3C)cc(OC)c1OC (stereo not shown) [pseudotropyl-3,4,5-trimethoxybenzoate] | 5.7
6 | CN1C2CCC1CC(OC(=O)c1ccc(Cl)c(Cl)c1)C2 (stereo not shown) [tropyl-3,4-dichlorobenzoate] | 7.8
7 | COc1ccc(C(=O)O[C@H]2C[C@H]3CC[C@@H](C2)N3C)cc1OC [tropyl 3,4-dimethoxybenzoate] | 7.2
8 | CN1C2CCC1CC(OC(=O)c1ccc(Cl)cc1)C2 (stereo not shown) [tropyl 4-chlorobenzoate] | 7.0
9 | Cc1ccc(C(=O)O[C@H]2C[C@H]3CC[C@@H](C2)N3C)cc1 [tropyl 4-methylbenzoate] | 7.8
10 | COc1cc(OC)cc(C(=O)OC2CC3CCC(C2)N3C)c1 (stereo not shown) [pseudotropyl-3,5-dimethoxybenzoate] | 6.6

Molecular target: T1, 5-HT M-receptor
Experiment: pA2 against 5-HT in the isolated rabbit heart
Conditions: Table II, representative compounds of Formula I
Procedure: The activity of the compounds against 5-HT can be assessed by determining their pA2 values in the isolated rabbit heart as described by Fozard et at Europ. J. Pharmacol. 59, 195-210 (1979). In the method described the molar concentration of antagonist which reduces the effects of twice the ED50 of 5-HT to that of the ED50 in the absence of antagonist is determined. The pA2 value is the negative logarithm of said molar concentrations.

Row | SMILES | pA2 5-HT
11 | Cc1ccccc1C(=O)OC1CC2CCC(C1)N2C (stereo not shown) [tropyl 2-methylbenzoate] | 8.1.
12 | Cc1ccc(C(=O)OC2CC3CCC(C2)N3C)cc1C (stereo not drawn) [tropyl 3,4-dimethylbenzoate, 3,4-DIMET[…] ENDO-8-METHYL-8-AZABICYCLO[3,2,1]OCT-3-YL ESTER] | 8.2
13 | Cc1ccc(C)c(C(=O)OC2CC3CCC(C2)N3C)c1 (stereo not shown) [tropyl 2,5-dimethylbenzoate] | 8.6
14 | Cc1ccc(C(=O)OC2CC3CCC(C2)N3C)c(C)c1 (stereo not shown) [tropyl 2,4-dimethylbenzoate] | 8.8
15 | Cc1cc(C)cc(C(=O)OC2CC3CCC(C2)N3C)c1 (stereo not drawn) [pseudotropyl 3,5-dimethylbenzoate, 3,5-DIMETHYL-BENZOIC ACID EXO-8-METHYL-8-AZABICYCLO[3,2,1]OCT-3-YL ESTER] | 8.9

Same assay, conditions: Table III, related compounds for comparative purposes

Row | SMILES | pA2 5-HT
16 | Cc1cccc(C(=O)OC2CC3CCC(C2)N3C)c1 (stereo not shown) [tropyl 3-methylbenzoate] | 8.1
17 | CN1C2CCC1CC(OC(=O)c1ccc(Cl)cc1)C2 (stereo not shown) [pseudotropyl-4-chlorobenzoate] | 6.7
18 | CN1C2CCC1CC(OC(=O)c1ccc(Cl)c(Cl)c1)C2 (stereo not shown) [pseudotropyl-3,4-dichlorobenzoate] | 7.5
19 | CN1C2CCC1CC(OC(=O)c1ccccc1)C2 (stereo not shown) [pseudotropyl benzoate] | 7.0
